Data taken from patent US8445510B2, “Fused bicyclic kinase inhibitors” (OSI Pharmaceuticals, LLC, priority 2011, dated 2013).

Molecular target: c-MET (Homo sapiens, UniProt P08581)
Assay: MET cell mechanistic assay (MKN45), phosphorylated MET ELISA
Type: cell-based
Conditions: MKN45 cell line; inhibition of phosphorylated MET; 4 hours incubation; at least duplicate experiments; read-out: MET mech IC50
Protocol: The cellular activity of the compounds of the present invention against c-MET may be determined by the following procedure. MKN45 cells were plated in Falcon 3072 96-well plates in growth media (RPMI, 10% FBS, 1% L-glutamine) at a density of 5000 cells/well and incubated at 37° C., 5% CO2 overnight. The following day, one-tenth volume of a 10× concentration of compounds was added to the wells in a 6-point dilution series. The dilutions series was composed of an initial 1:5 dilution in DMSO, followed by a 1:10 dilution in growth media, for a final DMSO concentration on cells of 0.5%. Control wells were treated with 0.5% DMSO. The typical range of dilution was 10 μM to 3 nM. Once compound was added to the cells, plates were incubated for 4 hours at 37° C., 5% CO2. Plates were then washed in PBS, and lysed in triton-based lysis buffer. Lysates were transferred to a precoated capture plate made by Biosource (Cat # KHO0281). The phosphorylated MET levels were measured by incubating with a rabbit polyclonal antibody against phosphorylated MET ([pYpYpY1230/1234/1235]) followed by an anti-rabbit antibody conjugated to HRP. Signal was measured on a Wallac Victor plate reader at 450 nm. The DMSO signal of the control wells was defined as 100% and the percent of inhibition of phosphorylated MET was expressed as percent of control. IC50 values were determined from the percent of control data using a standard four-parameter model.
The IC50 values of exemplary compounds of the present invention determined in a MET cell mechanistic assay using the MKN45 cell line according to the procedures described herein in at least duplicate experiments are abbreviated as follows and are shown in Table 1: A, IC50≦0.05 μM; B, 0.05 μM<IC50≦0.2 μM; C, 0.2 μM<IC50≦1 μM; D, IC50>1 μM; ND, not determined. The Example # of Table 1 corresponds to the compound example number as illustrated in the Examples section.
Treatment of this cell line with a selective c-MET inhibitor led to induction of apoptosis and inhibition of proliferation, whereas non-MET-amplified cell lines were not affected [Smolen et al., Proc. Natl. Acad. Sci. USA, 103(7):2316-2321 (2006)]. This cell line is thus “driven” by c-MET, and antiproliferative effects correlate very well with the inhibition of c-MET phosphorylation so that the cell proliferation IC50, values can be used as surrogate for the c-MET cell mechanistic IC50, values. Under the assay conditions described herein, the IC50 values correlate nearly 1:1.

Sequence of c-MET (P08581 25-1390): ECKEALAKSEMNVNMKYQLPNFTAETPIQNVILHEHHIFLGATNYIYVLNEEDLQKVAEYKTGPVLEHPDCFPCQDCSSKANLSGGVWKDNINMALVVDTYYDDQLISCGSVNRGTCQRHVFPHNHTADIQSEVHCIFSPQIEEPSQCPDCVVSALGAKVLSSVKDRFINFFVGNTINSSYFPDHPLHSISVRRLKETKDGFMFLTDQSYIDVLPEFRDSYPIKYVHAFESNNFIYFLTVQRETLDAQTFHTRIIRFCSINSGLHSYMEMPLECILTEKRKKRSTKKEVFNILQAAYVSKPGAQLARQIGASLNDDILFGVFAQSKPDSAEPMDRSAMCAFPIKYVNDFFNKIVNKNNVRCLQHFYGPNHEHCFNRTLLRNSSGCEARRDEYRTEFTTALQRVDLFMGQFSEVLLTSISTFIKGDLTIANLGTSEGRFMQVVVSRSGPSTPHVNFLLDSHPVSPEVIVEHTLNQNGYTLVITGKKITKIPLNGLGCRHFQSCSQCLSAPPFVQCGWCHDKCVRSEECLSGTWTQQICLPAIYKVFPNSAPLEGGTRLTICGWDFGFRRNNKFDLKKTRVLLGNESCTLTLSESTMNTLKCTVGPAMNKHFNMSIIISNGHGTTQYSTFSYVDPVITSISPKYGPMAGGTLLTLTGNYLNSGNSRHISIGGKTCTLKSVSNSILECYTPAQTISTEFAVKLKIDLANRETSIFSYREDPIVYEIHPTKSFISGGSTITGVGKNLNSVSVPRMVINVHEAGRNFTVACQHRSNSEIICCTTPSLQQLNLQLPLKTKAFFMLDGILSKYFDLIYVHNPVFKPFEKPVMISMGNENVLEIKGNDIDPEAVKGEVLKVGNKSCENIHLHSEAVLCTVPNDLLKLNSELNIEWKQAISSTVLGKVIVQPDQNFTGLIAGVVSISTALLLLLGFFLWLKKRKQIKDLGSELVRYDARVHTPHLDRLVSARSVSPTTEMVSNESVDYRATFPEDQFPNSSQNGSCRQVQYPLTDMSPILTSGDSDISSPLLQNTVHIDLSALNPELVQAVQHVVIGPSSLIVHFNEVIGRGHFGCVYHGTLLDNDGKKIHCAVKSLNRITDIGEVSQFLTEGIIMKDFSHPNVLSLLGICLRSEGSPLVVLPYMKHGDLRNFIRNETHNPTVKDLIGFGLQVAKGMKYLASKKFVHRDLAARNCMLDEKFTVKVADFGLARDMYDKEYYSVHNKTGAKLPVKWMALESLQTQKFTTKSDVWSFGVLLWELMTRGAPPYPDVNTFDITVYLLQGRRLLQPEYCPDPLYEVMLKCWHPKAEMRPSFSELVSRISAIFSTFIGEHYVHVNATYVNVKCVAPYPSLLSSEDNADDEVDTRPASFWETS

| IC50 | Structure (SMILES) |
| --- | --- |
| ≤ 50 nM | COc1ccc(F)c(Cl)c1[C@@H](CF)c1c[nH]c2ncc(-c3cnn([C@H]4CC[C@H](O)CC4)c3C)cc12 [Example 121, trans-4-(4-{3-[(1S)-1-(2-Chloro-3-fluoro-6-methoxyphenyl)-2-fluoroethyl]-1H-pyrrolo[2,3-b]pyridin-5-yl}-5-methyl-1H-pyrazol-1-yl)cyclohexanol] |
| 200 to 1000 nM | Cc1c(-c2cnc3[nH]cc([C@@H](CF)c4c(OC(F)F)ccc(F)c4Cl)c3c2)cnn1[C@H]1CC[C@H](O)CC1 [Example 123, trans-4-[4-(3-{(1R)-1-[2-chloro-6-(difluoromethoxy)-3-fluorophenyl]-2-fluoroethyl}-1H-pyrrolo[2,3-b]pyridin-5-yl)-5-methyl-1H-pyrazol-1-yl]cyclohexanol] |
| ≤ 50 nM | Cc1c(-c2cnc3[nH]cc([C@H](CF)c4c(OC(F)F)ccc(F)c4Cl)c3c2)cnn1[C@H]1CC[C@H](O)CC1 [Example 124, trans-4-[4-(3-{(1S)-1-[2-chloro-6-(difluoromethoxy)-3-fluorophenyl]-2-fluoroethyl}-1H-pyrrolo[2,3-b]pyridin-5-yl)-5-methyl-1H-pyrazol-1-yl]cyclohexanol] |
| ≤ 50 nM | C[C@H](c1c(OC(F)F)ccc(F)c1Cl)c1c[nH]c2ncc(-c3cnc(N4CCC(O)CC4)n3C)cc12 [Example 125, 1-[5-(3-{(1S)-1-[2-Chloro-6-(difluoromethoxy)-3-fluorophenyl]ethyl}-1H-pyrrolo[2,3-b]pyridin-5-yl)-1-methyl-1H-imidazol-2-yl]piperidin-4-ol] |
| ≤ 50 nM | C[C@H](c1c(OC(F)F)ccc(F)c1Cl)c1c[nH]c2ncc(-c3cnc([C@H]4CC[C@H](O)CC4)n3C)cc12 [Example 126, trans-4-[5-(3-{(1S)-1-[2-Chloro-6-(difluoromethoxy)-3-fluorophenyl]ethyl}-1H-pyrrolo[2,3-b]pyridin-5-yl)-1-methyl-1H-imidazol-2-yl]cyclohexanol] |

Second part, the compound before the results:

| Structure (SMILES) | IC50 |
| --- | --- |
| COc1ccc(F)c(Cl)c1[C@@H](C)c1c[nH]c2ncc(-c3cnn([C@H]4CC[C@H](O)CC4)c3C)cc12 [Example 27, trans-4-(4-{3-[(1S)-1-(2-Chloro-3-fluoro-6-methoxyphenyl)ethyl]-1H-pyrrolo[2,3-b]pyridin-5-yl}-5-methyl-1H-pyrazol-1-yl)cyclohexanol] | ≤ 50 nM |
| Cc1c(-c2cnc3[nH]cc([C@H](C)c4c(OC(F)F)ccc(F)c4Cl)c3c2)cnn1[C@H]1CC[C@H](O)CC1 [Example 74, trans-4-[4-(3-{(1S)-1-[2-Chloro-6-(difluoromethoxy)-3-fluorophenyl]ethyl}-1H-pyrrolo[2,3-b]pyridin-5-yl)-5-methyl-1H-pyrazol-1-yl]cyclohexanol] | ≤ 50 nM |
| Cc1c(-c2cnc3[nH]cc([C@H](C)c4c(OC(F)F)ccc(F)c4Cl)c3c2)cnn1C1CCNCC1 [Example 96, 3-{(1S)-1-[2-Chloro-6-(difluoromethoxy)-3-fluorophenyl]ethyl}-5-[5-methyl-1-(piperidin-4-yl)-1H-pyrazol-4-yl]-1H-pyrrolo[2,3-b]pyridine] | ≤ 50 nM |
| CC(=O)N1CCC(n2ncc(-c3cnc4[nH]cc([C@H](C)c5c(OC(F)F)ccc(F)c5Cl)c4c3)c2C)CC1 [Example 97, 1-{4-[4-(3-{(1S)-1-[2-Chloro-6-(difluoromethoxy)-3-fluorophenyl]ethyl}-1H-pyrrolo[2,3-b]pyridin-5-yl)-5-methyl-1H-pyrazol-1-yl]piperidin-1-yl}ethanone] | ≤ 50 nM |
| COc1ccc(F)c(Cl)c1[C@@H](C)c1c[nH]c2ncc(-c3cn([C@H]4CC[C@H](O)CC4)nc3OC)cc12 [Example 99, trans-4-(4-{3-[(1S)-1-(2-chloro-3-fluoro-6-methoxyphenyl)ethyl]-1H-pyrrolo[2,3-b]pyridin-5-yl}-3-methoxy-1H-pyrazol-1-yl)cyclohexanol] | ≤ 50 nM |
| COc1nn([C@H]2CC[C@H](O)CC2)cc1-c1cnc2[nH]cc([C@H](C)c3c(OC(F)F)ccc(F)c3Cl)c2c1 [Example 100, trans-4-[4-(3-{(1S)-1-[2-chloro-6-(difluoromethoxy)-3-fluorophenyl]ethyl}-1H-pyrrolo[2,3-b]pyridin-5-yl)-3-methoxy-1H-pyrazol-1-yl]cyclohexanol] | ≤ 50 nM |
| CCOc1ccc(F)c(Cl)c1[C@@H](C)c1c[nH]c2ncc(-c3cnn([C@H]4CC[C@H](O)CC4)c3C)cc12 [Example 103, trans-4-(4-{3-[(1S)-1-(2-Chloro-6-ethoxy-3-fluorophenyl)ethyl]-1H-pyrrolo[2,3-b]pyridin-5-yl}-5-methyl-1H-pyrazol-1-yl)cyclohexanol] | ≤ 50 nM |
